# Results: the supplement of paper PMC10307832
# Experiments:
# Experiment in all cases: relative viability (nuclei count vs DMSO), 5 days (fraction); higher = more cells survive
# EHT 1864 + Navitoclax = compound: C1COCCN1CC2=CC(=O)C(=CO2)OCCCCCSC3=C4C=CC(=CC4=NC=C3)C(F)(F)F [EHT 1864] + CC1(C)CCC(c2ccc(Cl)cc2)=C(CN2CCN(c3ccc(C(=O)NS(=O)(=O)c4ccc(N[C@H](CCN5CCOCC5)CSc5ccccc5)c(S(=O)(=O)C(F)(F)F)c4)cc3)CC2)C1 [Navitoclax] (partner 0.5 µM)
# Procedure, shortened: (§1)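 Each reported value is a median over duplicate plates. It expresses relative viability: treated-well nuclei count divided by vehicle-well nuclei count. Lung cancer cell lines in 1536-well plates were dosed by pin tool a day after seeding, alone with one drug or with a fixed anchor-drug dose plus five library-drug doses (not always all listed) in √10 steps, and nuclei were counted after 5 days.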
# EHT 1864 + Crizotinib = compound: C1COCCN1CC2=CC(=O)C(=CO2)OCCCCCSC3=C4C=CC(=CC4=NC=C3)C(F)(F)F [EHT 1864] + C[C@@H](Oc1cc(-c2cnn(C3CCNCC3)c2)cnc1N)c1c(Cl)ccc(F)c1Cl [Crizotinib] (partner 1 µM)
# Procedure, shortened: as §1
# EHT 1864 + Dasatinib = compound: C1COCCN1CC2=CC(=O)C(=CO2)OCCCCCSC3=C4C=CC(=CC4=NC=C3)C(F)(F)F [EHT 1864] + Cc1nc(Nc2ncc(C(=O)Nc3c(C)cccc3Cl)s2)cc(N2CCN(CCO)CC2)n1 [Dasatinib] (partner 0.075 µM)
# Procedure, shortened: as §1
# EHT 1864 + Vorinostat = compound: C1COCCN1CC2=CC(=O)C(=CO2)OCCCCCSC3=C4C=CC(=CC4=NC=C3)C(F)(F)F [EHT 1864] + O=C(CCCCCCC(=O)Nc1ccccc1)NO [Vorinostat] (partner 1 µM)
# Procedure, shortened: as §1
Cell Line,relative viability (EHT 1864 + Navitoclax; first compound 0.04 µM),relative viability (EHT 1864 + Navitoclax; first compound 0.1265 µM),relative viability (EHT 1864 + Navitoclax; first compound 0.4 µM),relative viability (EHT 1864 + Navitoclax; first compound 1.265 µM),relative viability (EHT 1864 + Navitoclax; first compound 4 µM),relative viability (EHT 1864 + Crizotinib; first compound 0.04 µM),relative viability (EHT 1864 + Crizotinib; first compound 0.1265 µM),relative viability (EHT 1864 + Crizotinib; first compound 0.4 µM),relative viability (EHT 1864 + Crizotinib; first compound 1.265 µM),relative viability (EHT 1864 + Crizotinib; first compound 4 µM),relative viability (EHT 1864 + Dasatinib; first compound 0.04 µM),relative viability (EHT 1864 + Dasatinib; first compound 0.4 µM),relative viability (EHT 1864 + Dasatinib; first compound 1.265 µM),relative viability (EHT 1864 + Dasatinib; first compound 4 µM),relative viability (EHT 1864 + Vorinostat; first compound 0.04 µM),relative viability (EHT 1864 + Vorinostat; first compound 0.4 µM),relative viability (EHT 1864 + Vorinostat; first compound 1.265 µM),relative viability (EHT 1864 + Vorinostat; first compound 4 µM),relative viability (EHT 1864 + Dasatinib; first compound 0.1265 µM),relative viability (EHT 1864 + Vorinostat; first compound 0.1265 µM)
NCI-H1993,0.84,0.697,0.866,1.08,0.849,0.882,0.78,0.751,0.817,0.958,0.841,0.498,0.613,0.639,0.896,0.912,0.806,0.863,–,–
NCI-H358,–,–,–,–,–,0.604,–,0.616,0.517,0.579,0.215,0.17,0.174,0.186,0.645,0.612,0.68,0.559,0.145,0.652
NCI-H1648,–,–,–,–,–,–,–,–,–,–,–,–,–,–,0.562,0.436,0.411,0.644,–,–
LCLC-103H,–,–,–,–,–,1.15,1.03,1.02,1.05,1.01,0.409,0.373,0.431,0.505,0.758,0.791,0.779,0.712,0.399,0.666
SW 900,–,–,–,–,–,–,–,–,–,–,0.809,0.684,1.02,0.552,0.54,0.531,0.589,0.467,–,–
IA-LM,0.697,0.653,0.775,0.803,0.569,1.01,–,0.754,–,0.684,–,–,–,–,0.917,0.853,0.946,1.24,–,–
NCI-H1563,–,–,–,–,–,0.89,0.883,0.916,0.827,0.656,0.437,0.469,0.43,0.489,–,–,–,–,0.466,–
HCC-44,1.02,0.951,0.905,0.904,1.08,0.799,0.751,0.693,0.653,0.858,–,–,–,–,1.08,1.06,1.08,1.13,–,0.984
NCI-H2342,–,–,–,–,–,–,–,–,–,–,0.317,0.315,0.309,0.306,0.688,0.703,0.803,0.787,0.307,0.725
NCI-H1793,–,0.366,0.485,0.364,0.387,–,–,–,–,–,0.307,0.304,–,0.419,0.656,0.768,0.879,0.935,–,0.403
ABC-1,–,–,–,–,–,1.35,1.03,0.991,0.733,0.759,0.504,0.631,0.488,0.439,1.22,0.928,1.07,1.12,–,0.978
NCI-H522,–,–,–,–,–,–,–,–,–,–,0.919,1.04,0.812,0.875,0.76,0.901,0.893,1.03,0.724,0.738
NCI-H1792,0.68,0.54,0.648,0.616,0.718,0.982,0.852,0.972,0.895,1.04,0.755,0.714,0.73,0.894,–,–,–,–,0.778,–
